In patent publication US20100298141A1, “SUBSTITUTED PYRIDINE N-OXIDE HERBICIDES” (E. I. DU PONT DE NEMOURS AND COMPANY, priority 2007, published 2010):

Assays:
common ragweed = experiment: Test C pre-/postemergence test; assay type: in vivo, Ambrosia elation
How it was run: (§1)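 Test chemicals were formulated with surfactant in a non-phytotoxic solvent and sprayed both on freshly planted seeds (preemergence) and on 1- to 4-leaf plants of 2–18 cm (postemergence). Flooded-paddy pots received compound directly into 3 cm of standing water, maintained for the test.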

johnsongrass = experiment: Test C pre-/postemergence test; assay type: in vivo, Sorghum halepense; conditions: for Plant response rating, Johnsongrass: 31 g ai/ha, scale 0 to 100 (0 no effect, 100 complete control)
How it was run: as §1

eastern black nightshade = experiment: Test C pre-/postemergence test; assay type: in vivo, Solanum ptycanthum; conditions: for Plant response rating, Nightshade: 31 g ai/ha, scale 0 to 100 (0 no effect, 100 complete control)
How it was run: as §1

green foxtail = experiment: Test C pre-/postemergence test; assay type: in vivo, Setaria viridis; conditions: for Plant response rating, Foxtail, Green: 31 g ai/ha, scale 0 to 100 (0 no effect, 100 complete control)
How it was run: as §1

velvetleaf [1] = experiment: Test C pre-/postemergence test; assay type: in vivo, Abutilon theophrasti; conditions: for Plant response rating, Velvetleaf: 31 g ai/ha, scale 0 to 100 (0 no effect, 100 complete control)
How it was run: as §1

wild oat = experiment: Test C pre-/postemergence test; assay type: in vivo, Avena fatua; conditions: for Plant response rating, Oat, Wild: 31 g ai/ha, scale 0 to 100 (0 no effect, 100 complete control)
How it was run: as §1

redroot pigweed = experiment: Test A pre-/postemergence greenhouse test; assay type: in vivo, Amaranthus retroflexus; conditions: for Plant response rating, Pigweed: 0 to 100 scale where 0 is no effect and 100 is complete control; for Pigweed plant response rating: 0 to 100 scale
How it was run: (§2)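 Test compounds in non-phytotoxic solvent with surfactant were applied as a preemergence soil spray to seeded loam/sand pots and, concurrently, postemergence to plants at 2–10 cm, one- to two-leaf stage. About ten days in greenhouse, then injury visually rated against untreated controls.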

crabgrass = experiment: Test C pre-/postemergence test; assay type: in vivo, Digitaria sanguinalis; conditions: for Plant response rating, Crabgrass, Large: 31 g ai/ha, scale 0 to 100 (0 no effect, 100 complete control)
How it was run: as §1

barnyardgrass = experiment: Test A pre-/postemergence greenhouse test; assay type: in vivo, Echinochloa crus-galli; conditions: for Plant response rating, Barnyardgrass: 0 to 100 scale where 0 is no effect and 100 is complete control; for Barnyardgrass plant response rating: 0 to 100 scale
How it was run: as §2

kochia = experiment: Test C pre-/postemergence test; assay type: in vivo, Kochia scoparia; conditions: for Plant response rating, Kochia: 31 g ai/ha, scale 0 to 100 (0 no effect, 100 complete control)
How it was run: as §1

Surinam grass = experiment: Test C pre-/postemergence test; assay type: in vivo, Brachiaria decumbens; conditions: for Plant response rating, Surinam Grass: 31 g ai/ha, scale 0 to 100 (0 no effect, 100 complete control)
How it was run: as §1

lambsquarters = experiment: Test C pre-/postemergence test; assay type: in vivo, Chenopodium album; conditions: for Plant response rating, Lambsquarters: 31 g ai/ha, scale 0 to 100 (0 no effect, 100 complete control)
How it was run: as §1

cocklebur = experiment: Test C pre-/postemergence test; assay type: in vivo, Xanthium strumarium; conditions: for Plant response rating, Cocklebur: 31 g ai/ha, scale 0 to 100 (0 no effect, 100 complete control)
How it was run: as §1

giant foxtail = experiment: Test C pre-/postemergence test; assay type: in vivo, Setaria faberii; conditions: for Plant response rating, Foxtail, Giant: 31 g ai/ha, scale 0 to 100 (0 no effect, 100 complete control)
How it was run: as §1

velvetleaf [2] = experiment: Test A pre-/postemergence greenhouse test; assay type: in vivo, Abutilon theophrasti; conditions: for Plant response rating, Velvetleaf: 0 to 100 scale where 0 is no effect and 100 is complete control; for Velvetleaf plant response rating: 0 to 100 scale
How it was run: as §2

downy brome = experiment: Test C pre-/postemergence test; assay type: in vivo, Bromus tectorum; conditions: for Plant response rating, Bromegrass, Downy: 31 g ai/ha, scale 0 to 100 (0 no effect, 100 complete control)
How it was run: as §1

rice = experiment: Test C flooded paddy test; assay type: in vivo, Oryza sativa; conditions: Flood
How it was run: (§3)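 Compound was added to standing water 3 cm above soil, flood maintained, and plants held in a greenhouse before visual scoring against controls at 13 to 15 days.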

duck salad = experiment: Test C flooded paddy test; assay type: in vivo, Heteranthera limosa; conditions: Flood
How it was run: as §3

[3] = 62 g ai/ha, Preemergence, scale 0 to 100
[4] = 125 g ai/ha, preemergence, scale 0 (no effect) to 100 (complete control)
[5] = preemergence, 250 g ai/ha, scale 0 (no effect) to 100 (complete control)
[6] = Postemergence, 500 g ai/ha, 0 is no effect, 100 is complete control
[7] = Preemergence, 125 g ai/ha, 0 no effect, 100 complete control
[8] = 62 g ai/ha, scale 0 to 100 (0 no effect, 100 complete control)
[9] = 250 g ai/ha, scale 0 to 100, 0 no effect, 100 complete control, 13 to 15 days

Cn1nc(C(F)(F)F)c(C[S+]([O-])c2cccc[n+]2[O-])c1OCC(F)F (stereo not drawn) [Compound 75]
Ragweed plant response rating (common ragweed; [3]): 80
Ragweed plant response rating (common ragweed; [4]): 85
Plant response rating, Ragweed (common ragweed; Preemergence, 31 g ai/ha, scale 0 to 100 (0 no effect, 100 complete control)): 0
Ragweed plant response rating (common ragweed; [5]): 100
Johnsongrass plant response rating (johnsongrass; [3]): 85
Johnsongrass plant response rating (johnsongrass; [4]): 100
Plant response rating, Johnsongrass (johnsongrass; Preemergence): 50
Johnsongrass plant response rating (johnsongrass; [5]): 100
Nightshade plant response rating (eastern black nightshade; [3]): 98
Nightshade plant response rating (eastern black nightshade; [4]): 100
Plant response rating, Nightshade (eastern black nightshade; Preemergence): 0
Nightshade plant response rating (eastern black nightshade; [5]): 100
Foxtail, Green plant response rating (green foxtail; [3]): 98
Foxtail, Green plant response rating (green foxtail; [4]): 98
Plant response rating, Foxtail, Green (green foxtail; Preemergence): 80
Foxtail, Green plant response rating (green foxtail; [5]): 100
Velvetleaf plant response rating (velvetleaf [1]; [3]): 100
Velvetleaf plant response rating (velvetleaf [1]; [4]): 100
Plant response rating, Velvetleaf (velvetleaf [1]; Preemergence): 100
Velvetleaf plant response rating (velvetleaf [1]; [5]): 100
Oat, Wild plant response rating (wild oat; [3]): 40
Oat, Wild plant response rating (wild oat; [4]): 70
Plant response rating, Oat, Wild (wild oat; Preemergence): 0
Oat, Wild plant response rating (wild oat; [5]): 80
Plant response rating, Pigweed (redroot pigweed; Postemergence, 125 g ai/ha): 70
Pigweed plant response rating (redroot pigweed; [6]): 100
Pigweed plant response rating (redroot pigweed; [7]): 80
Plant response rating, Pigweed (redroot pigweed; Preemergence, 500 g ai/ha): 100
Crabgrass, Large plant response rating (crabgrass; [3]): 85
Crabgrass, Large plant response rating (crabgrass; [4]): 100
Plant response rating, Crabgrass, Large (crabgrass; Preemergence): 40
Crabgrass, Large plant response rating (crabgrass; [5]): 100
Plant response rating, Barnyardgrass (barnyardgrass; Postemergence, 125 g ai/ha): 60
Barnyardgrass plant response rating (barnyardgrass; [6]): 80
Barnyardgrass plant response rating (barnyardgrass; [7]): 80
Plant response rating, Barnyardgrass (barnyardgrass; Preemergence, 500 g ai/ha): 100
Kochia plant response rating (kochia; [3]): 100
Kochia plant response rating (kochia; [4]): 100
Plant response rating, Kochia (kochia; Preemergence): 100
Kochia plant response rating (kochia; [5]): 100
Surinam Grass plant response rating (Surinam grass; [3]): 100
Surinam Grass plant response rating (Surinam grass; [4]): 100
Plant response rating, Surinam Grass (Surinam grass; Preemergence): 60
Surinam Grass plant response rating (Surinam grass; [5]): 100
Lambsquarters plant response rating (lambsquarters; [3]): 100
Lambsquarters plant response rating (lambsquarters; [4]): 100
Plant response rating, Lambsquarters (lambsquarters; Preemergence): 100
Lambsquarters plant response rating (lambsquarters; [5]): 100
Cocklebur plant response rating (cocklebur; [3]): 0
Cocklebur plant response rating (cocklebur; [4]): 0
Plant response rating, Cocklebur (cocklebur; Preemergence): 0
Cocklebur plant response rating (cocklebur; [5]): 10
Foxtail, Giant plant response rating (giant foxtail; [3]): 85
Foxtail, Giant plant response rating (giant foxtail; [4]): 100
Plant response rating, Foxtail, Giant (giant foxtail; Preemergence): 80
Foxtail, Giant plant response rating (giant foxtail; [5]): 100
Plant response rating, Velvetleaf (velvetleaf [2]; Postemergence, 125 g ai/ha): 40
Velvetleaf plant response rating (velvetleaf [2]; [6]): 80
Velvetleaf plant response rating (velvetleaf [2]; [7]): 60
Plant response rating, Velvetleaf (velvetleaf [2]; Preemergence, 500 g ai/ha): 100
Bromegrass, Downy plant response rating (downy brome; [3]): 50
Bromegrass, Downy plant response rating (downy brome; [4]): 85
Plant response rating, Bromegrass, Downy (downy brome; Preemergence): 40
Bromegrass, Downy plant response rating (downy brome; [5]): 90
Plant response rating, Rice (rice; [8]): 0
Plant response rating, Rice (rice; [9]): 60
Plant response rating, Ducksalad (duck salad; [8]): 40
Plant response rating, Ducksalad (duck salad; [9]): 85

C#CCOc1c(C[S+]([O-])c2cccc[n+]2[O-])c(C(F)(F)F)nn1C (stereo not drawn) [Compound 76]
Ragweed plant response rating (common ragweed; [3]): 20
Ragweed plant response rating (common ragweed; [4]): 100
Ragweed plant response rating (common ragweed; [5]): 100
Johnsongrass plant response rating (johnsongrass; [3]): 95
Johnsongrass plant response rating (johnsongrass; [4]): 100
Plant response rating, Johnsongrass (johnsongrass; Preemergence): 85
Johnsongrass plant response rating (johnsongrass; [5]): 100
Nightshade plant response rating (eastern black nightshade; [3]): 85
Nightshade plant response rating (eastern black nightshade; [4]): 90
Plant response rating, Nightshade (eastern black nightshade; Preemergence): 85
Nightshade plant response rating (eastern black nightshade; [5]): 100
Foxtail, Green plant response rating (green foxtail; [3]): 100
Foxtail, Green plant response rating (green foxtail; [4]): 100
Plant response rating, Foxtail, Green (green foxtail; Preemergence): 70
Foxtail, Green plant response rating (green foxtail; [5]): 100
Velvetleaf plant response rating (velvetleaf [1]; [3]): 100
Velvetleaf plant response rating (velvetleaf [1]; [4]): 100
Plant response rating, Velvetleaf (velvetleaf [1]; Preemergence): 0
Velvetleaf plant response rating (velvetleaf [1]; [5]): 100
Oat, Wild plant response rating (wild oat; [3]): 50
Oat, Wild plant response rating (wild oat; [4]): 60
Plant response rating, Oat, Wild (wild oat; Preemergence): 0
Oat, Wild plant response rating (wild oat; [5]): 95
Plant response rating, Pigweed (redroot pigweed; Postemergence, 125 g ai/ha): 50
Pigweed plant response rating (redroot pigweed; [6]): 80
Pigweed plant response rating (redroot pigweed; [7]): 70
Plant response rating, Pigweed (redroot pigweed; Preemergence, 500 g ai/ha): 100
Crabgrass, Large plant response rating (crabgrass; [3]): 85
Crabgrass, Large plant response rating (crabgrass; [4]): 98
Plant response rating, Crabgrass, Large (crabgrass; Preemergence): 85
Crabgrass, Large plant response rating (crabgrass; [5]): 100
Plant response rating, Barnyardgrass (barnyardgrass; Postemergence, 125 g ai/ha): 70
Barnyardgrass plant response rating (barnyardgrass; [6]): 80
Barnyardgrass plant response rating (barnyardgrass; [7]): 80
Plant response rating, Barnyardgrass (barnyardgrass; Preemergence, 500 g ai/ha): 100
Kochia plant response rating (kochia; [3]): 100
Kochia plant response rating (kochia; [4]): 100
Plant response rating, Kochia (kochia; Preemergence): 70
Kochia plant response rating (kochia; [5]): 100
Surinam Grass plant response rating (Surinam grass; [3]): 85
Surinam Grass plant response rating (Surinam grass; [4]): 85
Plant response rating, Surinam Grass (Surinam grass; Preemergence): 0
Surinam Grass plant response rating (Surinam grass; [5]): 100
Lambsquarters plant response rating (lambsquarters; [3]): 100
Lambsquarters plant response rating (lambsquarters; [4]): 100
Plant response rating, Lambsquarters (lambsquarters; Preemergence): 85
Lambsquarters plant response rating (lambsquarters; [5]): 100
Cocklebur plant response rating (cocklebur; [3]): 0
Cocklebur plant response rating (cocklebur; [4]): 0
Plant response rating, Cocklebur (cocklebur; Preemergence): 0
Cocklebur plant response rating (cocklebur; [5]): 10
Foxtail, Giant plant response rating (giant foxtail; [3]): 90
Foxtail, Giant plant response rating (giant foxtail; [4]): 100
Plant response rating, Foxtail, Giant (giant foxtail; Preemergence): 75
Foxtail, Giant plant response rating (giant foxtail; [5]): 100
Plant response rating, Velvetleaf (velvetleaf [2]; Postemergence, 125 g ai/ha): 60
Velvetleaf plant response rating (velvetleaf [2]; [6]): 80
Velvetleaf plant response rating (velvetleaf [2]; [7]): 50
Plant response rating, Velvetleaf (velvetleaf [2]; Preemergence, 500 g ai/ha): 80
Bromegrass, Downy plant response rating (downy brome; [3]): 45
Bromegrass, Downy plant response rating (downy brome; [4]): 60
Plant response rating, Bromegrass, Downy (downy brome; Preemergence): 0
Bromegrass, Downy plant response rating (downy brome; [5]): 85
Plant response rating, Rice (rice; [8]): 0
Plant response rating, Rice (rice; [9]): 30
Plant response rating, Ducksalad (duck salad; [8]): 0
Plant response rating, Ducksalad (duck salad; [9]): 100
